From BigSolDB 2.1

Nc1nc2ccc(OC(F)(F)F)cc2s1
solubility (mole fraction)
Conditions | 278.15 K | 283.15 K | 288.15 K | 293.15 K | 298.15 K | 303.15 K | 308.15 K | 313.15 K | 318.15 K | 323.15 K
in 2-methoxyethanol | 0.383 | 0.398 | 0.405 | 0.419 | 0.428 | 0.436 | 0.449 | 0.459 | 0.469 | 0.478
in 2-propoxyethanol | 0.449 | 0.461 | 0.469 | 0.485 | 0.496 | 0.504 | 0.514 | 0.521 | 0.53 | 0.538
in DMAc | 0.0878 | 0.0968 | 0.106 | 0.116 | 0.129 | 0.142 | 0.156 | 0.17 | 0.188 | 0.203
in acetone | 0.371 | 0.379 | 0.387 | 0.401 | 0.414 | 0.425 | 0.437 | 0.449 | 0.464 | 0.477
in acetonitrile | 0.156 | 0.176 | 0.197 | 0.216 | 0.245 | 0.267 | 0.302 | 0.336 | 0.365 | 0.387
in ethanol | 0.179 | 0.188 | 0.198 | 0.212 | 0.222 | 0.236 | 0.254 | 0.273 | 0.294 | 0.308
in isopropyl acetate | 0.331 | 0.341 | 0.351 | 0.361 | 0.376 | 0.386 | 0.395 | 0.411 | 0.43 | 0.443
in n-butanol | 0.185 | 0.197 | 0.207 | 0.221 | 0.236 | 0.254 | 0.268 | 0.288 | 0.313 | 0.337
in n-pentanol | 0.197 | 0.205 | 0.216 | 0.231 | 0.249 | 0.264 | 0.281 | 0.303 | 0.325 | 0.342
in n-pentyl acetate | 0.348 | 0.356 | 0.365 | 0.374 | 0.385 | 0.395 | 0.408 | 0.425 | 0.439 | 0.46
in n-propanol | 0.179 | 0.189 | 0.202 | 0.215 | 0.23 | 0.249 | 0.267 | 0.287 | 0.312 | 0.333
in n-propyl acetate | 0.349 | 0.36 | 0.368 | 0.377 | 0.389 | 0.398 | 0.414 | 0.429 | 0.446 | 0.463
